ChEMBL document CHEMBL4364250, “Improvement of Asparagine Ethylenediamines as Anti-malarial Plasmodium-Selective Proteasome Inhibitors” (J Med Chem, 2019)
Calls of active or inactive are those of the source. The rule behind the calls is not given here.

Key:
[1] = tested on: beta5 subunit of human 20S constitutive proteasome; assay: Selectivity ratio of IC50 for human beta5 20S constitutive proteasome to IC50 for Plasmodium falciparum 20S proteasome beta5 subunit; assay type: toxicity; conditions: read-out: Ratio IC50
[2] = target: T1, Proteasome subunit beta type-8 (Homo sapiens, UniProt P28062); assay: Inhibition of human beta5 20S immunoproteasome using Ac-ANW-AMC as substrate
T1 sequence (P28062 whole entry): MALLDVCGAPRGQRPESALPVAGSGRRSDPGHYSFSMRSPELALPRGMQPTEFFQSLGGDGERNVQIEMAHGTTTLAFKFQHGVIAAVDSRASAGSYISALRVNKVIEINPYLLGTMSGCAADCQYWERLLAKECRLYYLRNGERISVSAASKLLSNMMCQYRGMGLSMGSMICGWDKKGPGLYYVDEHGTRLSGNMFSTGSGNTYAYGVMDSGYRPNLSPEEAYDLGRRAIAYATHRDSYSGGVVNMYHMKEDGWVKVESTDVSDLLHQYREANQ

Karpas-1106P = assay: Cytotoxicity against human KARPAS1106P cells; assay type: cell-based
HepG2 = assay: Cytotoxicity against human HepG2 cells; assay type: cell-based
Plasmodium falciparum [3] = assay: Antimalarial activity against erythrocytic stage of Plasmodium falciparum 3D7 measured after 72 hrs by SYBR green dye based fluorescence assay; assay type: functional, organism-based; conditions: 3D7, 72 h
[4] = target: T2, Proteasome Macropain subunit MB1 (Homo sapiens, UniProt P28074); assay: Inhibition of human beta5 20S constitutive proteasome using suc-LLVY-AMC as substrate
T2 sequence (P28074 whole entry): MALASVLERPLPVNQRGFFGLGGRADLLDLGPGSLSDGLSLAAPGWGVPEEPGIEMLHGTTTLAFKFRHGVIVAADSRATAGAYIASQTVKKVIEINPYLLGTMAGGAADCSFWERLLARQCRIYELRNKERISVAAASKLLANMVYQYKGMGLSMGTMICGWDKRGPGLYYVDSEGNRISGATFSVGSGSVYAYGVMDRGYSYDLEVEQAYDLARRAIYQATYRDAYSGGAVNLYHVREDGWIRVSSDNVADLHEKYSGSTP

[5] = Inhibition of Plasmodium falciparum 20S proteasome beta5 subunit using suc-LLVY-AMC as substrate in presence of beta2 inhibitor WLW-VS
[6] = tested on: beta5 subunit of human 20S immunoproteasome; assay: Selectivity ratio of IC50 for human beta5 20S immunoproteasome to IC50 for Plasmodium falciparum 20S proteasome beta5 subunit; assay type: toxicity; conditions: read-out: Ratio IC50
Plasmodium falciparum [7] = assay: Resistance index, ratio of EC50 for erythrocytic stage of Plasmodium falciparum Dd2 harboring 20S beta6 proteasome A117D mutant to EC50 erythrocytic stage of Plasmodium falciparum Dd2
Plasmodium falciparum [8] = assay: Resistance index, ratio of EC50 for erythrocytic stage of Plasmodium falciparum Dd2 harboring 20S beta5 proteasome A49S mutant to EC50 erythrocytic stage of Plasmodium falciparum Dd2; assay type: functional
Plasmodium falciparum [9] = assay: Antimalarial activity against erythrocytic stage of Plasmodium falciparum Dd2 harboring 20S beta2 proteasome A117D mutant measured after 72 hrs by SYBR green dye based fluorescence assay; assay type: functional, organism-based; conditions: Dd2, 72 h
Plasmodium falciparum [10] = assay: Antimalarial activity against erythrocytic stage of Plasmodium falciparum Dd2 measured after 72 hrs by SYBR green dye based fluorescence assay; assay type: functional, organism-based; conditions: Dd2, 72 h
Plasmodium falciparum [11] = assay: Antimalarial activity against erythrocytic stage of Plasmodium falciparum Dd2 harboring 20S beta5 proteasome A49S mutant measured after 72 hrs by SYBR green dye based fluorescence assay; assay type: functional, organism-based; conditions: Dd2, 72 h
Plasmodium falciparum [12] = assay: Inhibition of MV151 binding to Plasmodium falciparum 20S proteasome beta1 subunit preincubated for 1 hr followed by MV151 addition and measured after 1 hr by fluorescence assay
Plasmodium falciparum [13] = assay: Inhibition of MV151 binding to Plasmodium falciparum 20S proteasome beta2 subunit preincubated for 1 hr followed by MV151 addition and measured after 1 hr by fluorescence assay
[14] = Clearance in mouse liver microsomes; assay type: ADME, Microsome; conditions: read-out: CLH
[15] = Clearance in human liver microsomes; assay type: ADME, Microsome; conditions: read-out: CLH
[16] = Clearance in rat liver microsomes; assay type: ADME, Microsome; conditions: read-out: CLH
[17] = Permeability of the compound at pH 7.4 by PAMPA; assay type: ADME; conditions: read-out: permeability

SMILES	selectivity ratio [1]	IC50 [2]	EC50 (Karpas-1106P)	EC50 (HepG2)	EC50 (Plasmodium falciparum [3])	IC50 [4]	IC50 [5]	selectivity ratio [6]	Ratio EC50 (Plasmodium falciparum [7])	Ratio EC50 (Plasmodium falciparum [8])	EC50 (Plasmodium falciparum [9])	EC50 (Plasmodium falciparum [10])	EC50 (Plasmodium falciparum [11])	inhibition (Plasmodium falciparum [12])	inhibition (Plasmodium falciparum [13])	microsomal CLint [14]	microsomal CLint [15]	microsomal CLint [16]	Papp [17]
Cc1ccc(S(=O)(=O)N[C@@H](CC(=O)NC(C)(C)C)C(=O)NCCNC(=O)c2ccccc2Cl)cc1	123	1400 nM	> 11100 nM	> 11000 nM	98 nM	26000 nM	211 nM	6.6	–	–	–	–	–	–	–	–	–	–	–
Cc1ccc(S(=O)(=O)N[C@@H](CC(=O)NC(C)(C)C)C(=O)NCCNC(=O)c2cccc(C#N)c2)cc1	103	4690 nM	> 11100 nM	> 11000 nM	132 nM	40200 nM	390 nM	12	–	–	–	–	–	–	–	–	–	–	–
CC(C)(C)NC(=O)C[C@H](NC(=O)CCc1ccccc1)C(=O)NCCNC(=O)c1cccc(-c2ccccc2)c1	–	–	–	–	–	–	–	–	130	541	326 nM	2.5 nM	1350 nM	–	–	–	–	–	–
Cc1ccc(S(=O)(=O)N[C@@H](CC(=O)NC(C)(C)C)C(=O)NCCNC(=O)Nc2ccccc2)cc1	> 3.9	2090 nM	> 11100 nM	> 11000 nM	> 2770 nM	> 100000 nM	2580 nM	0.8	–	–	–	–	–	–	–	–	–	–	–
CC(C)C[C@H](NC(=O)[C@H](Cc1ccccc1)NC(=O)c1cnccn1)B(O)O [BORTEZOMIB]	–	–	–	–	–	–	–	–	0.25	2.4	106 nM	419 nM	1020 nM	–	–	–	–	–	–
CC(C)C[C@@H](/C=C/S(C)(=O)=O)NC(=O)[C@H](CC(C)C)NC(=O)[C@H](Cc1c[nH]c2ccccc12)NC(=O)CN1CCOCC1	–	–	–	–	–	–	–	–	0.08	0.28	7.3 nM	91.6 nM	26 nM	–	–	–	–	–	–
Cc1ccc(S(=O)(=O)N[C@@H](CC(=O)NC(C)(C)C)C(=O)NCCNC(=O)c2ccccc2O)cc1	67	24 nM	> 11100 nM	> 11000 nM	9.6 nM	409 nM	6.1 nM	4	–	–	–	–	–	–	–	–	–	–	–
Cc1ccc(S(=O)(=O)N[C@@H](CC(=O)NC(C)(C)C)C(=O)NCCNC(=O)c2cccc(C(F)(F)F)c2)cc1	148	763 nM	> 11100 nM	> 11000 nM	167 nM	37100 nM	250 nM	3.1	–	–	–	–	–	–	–	–	–	–	–
Cc1ccc(S(=O)(=O)N[C@@H](CC(=O)NC(C)(C)C)C(=O)NCCNC(=O)c2ccc(F)c(F)c2)cc1	48	195 nM	> 11100 nM	> 11000 nM	68.8 nM	6040 nM	126 nM	1.5	–	–	–	–	–	–	–	–	–	–	–
Cc1ccc(S(=O)(=O)N[C@@H](CC(=O)NC(C)(C)C)C(=O)NCCNC(=O)c2cc(-c3ccccc3F)ccc2F)cc1	–	4 nM	–	–	1.6 nM	110 nM	–	–	–	–	–	–	–	inactive	inactive	–	–	–	–
Cc1ccc(S(=O)(=O)N[C@@H](CC(=O)NC(C)(C)C)C(=O)NCCNS(=O)(=O)c2ccccc2)cc1	> 6.6	2890 nM	> 11100 nM	> 11000 nM	> 2770 nM	> 100000 nM	15100 nM	0.2	–	–	–	–	–	–	–	–	–	–	–
Cc1ccc(S(=O)(=O)N[C@@H](CC(=O)NC(C)(C)C)C(=O)NCCNC(=O)c2c(O)cccc2F)cc1	13	72.7 nM	> 11100 nM	> 11000 nM	83.7 nM	540 nM	40.5 nM	1.8	–	–	–	–	–	–	–	–	–	–	–
Cc1ccc(S(=O)(=O)N[C@@H](CC(=O)NC(C)(C)C)C(=O)NCCNC(=O)c2cccc(C(C)C)c2)cc1	225	200 nM	> 11100 nM	> 11000 nM	98.5 nM	9120 nM	40.4 nM	5	–	–	–	–	–	–	–	–	–	–	–
Cc1ccc(S(=O)(=O)N[C@@H](CC(=O)NC(C)(C)C)C(=O)NCCNC(=O)c2ccccn2)cc1	27	2090 nM	> 11100 nM	> 11000 nM	> 2770 nM	29400 nM	1090 nM	1.9	–	–	–	–	–	–	–	–	–	–	–
Cc1ccc(S(=O)(=O)N[C@@H](CC(=O)NC(C)(C)C)C(=O)NCCNC(=O)c2ccc(F)cc2)cc1	55	179 nM	> 11100 nM	> 11000 nM	50.9 nM	6700 nM	121 nM	1.5	–	–	–	–	–	–	–	49 µL/min/mg	149 µL/min/mg	81 µL/min/mg	–
Cc1ccc(S(=O)(=O)N[C@@H](CC(=O)NC(C)(C)C)C(=O)NCCNC(=O)c2cc(Cl)ccc2Cl)cc1	> 507	5650 nM	> 11100 nM	> 11000 nM	118 nM	> 100000 nM	197 nM	28.7	–	–	–	–	–	–	–	–	–	–	–
COc1cccc(C(=O)NCCNC(=O)[C@H](CC(=O)NC(C)(C)C)NS(=O)(=O)c2ccc(C)cc2)c1	57	38 nM	> 11100 nM	> 11000 nM	2.3 nM	506 nM	8.9 nM	4.3	25	101	63.4 nM	2.5 nM	252 nM	–	–	142 µL/min/mg	202 µL/min/mg	115 µL/min/mg	15.9 ×10⁻⁶ cm/s
Cc1ccc(S(=O)(=O)N[C@@H](CC(=O)NC(C)(C)C)C(=O)NCCNC(=O)c2cccc(F)c2)cc1	74	128 nM	> 11100 nM	> 11000 nM	11.7 nM	2200 nM	29.6 nM	4.3	–	–	–	–	–	–	–	–	–	–	–
Cc1ccc(S(=O)(=O)N[C@@H](CC(=O)NC(C)(C)C)C(=O)NCCNC(=O)c2cc(C)ccn2)cc1	> 156	3110 nM	> 11100 nM	> 11000 nM	227 nM	> 100000 nM	639 nM	4.9	–	–	–	–	–	–	–	–	–	–	–
COc1cc(OC)cc(C(=O)NCCNC(=O)[C@H](CC(=O)NC(C)(C)C)NS(=O)(=O)c2ccc(C)cc2)c1	> 24.7	9970 nM	> 11100 nM	> 11000 nM	> 2770 nM	> 100000 nM	4060 nM	2.5	–	–	–	–	–	–	–	–	–	–	–
Cc1ccc(S(=O)(=O)N[C@@H](CC(=O)NC(C)(C)C)C(=O)NCCNC(=O)NCc2ccccc2)cc1	16.8	2350 nM	> 11100 nM	> 11000 nM	2140 nM	46600 nM	2770 nM	0.85	–	–	–	–	–	–	–	–	–	–	–
Cc1ccc(S(=O)(=O)N[C@@H](CC(=O)NC(C)(C)C)C(=O)NCCNC(=O)c2ccc(Cl)cc2)cc1	44	38 nM	> 11100 nM	> 11000 nM	130 nM	5000 nM	113 nM	0.3	–	–	–	–	–	–	–	–	–	–	–
Cc1cc(C(=O)N[C@@H](CC(=O)NC(C)(C)C)C(=O)NCCNC(=O)c2cccc(-n3cccn3)c2)no1	–	–	–	–	–	–	–	–	10	>100	279 nM	27.6 nM	> 2770 nM	–	–	–	–	–	–
Cc1ccc(S(=O)(=O)N[C@@H](CC(=O)NC(C)(C)C)C(=O)NCCNC(=O)c2cc(Cl)ccn2)cc1	> 110	3560 nM	> 11100 nM	> 11000 nM	283 nM	> 100000 nM	911 nM	3.9	–	–	–	–	–	–	–	–	–	–	–
Cc1ccc(S(=O)(=O)N[C@@H](CC(=O)NC(C)(C)C)C(=O)NCCNC(=O)c2cccc(O)c2)cc1	195	475 nM	> 11100 nM	> 11000 nM	15.4 nM	4380 nM	22.4 nM	21	–	–	–	–	–	–	–	–	–	–	–
